≈ marks a conversion by molar mass, not a printed value.

From ChEMBL document CHEMBL3992516, “Synthesis and SAR evaluation of novel thioridazine derivatives active against drug-resistant tuberculosis” (Eur J Med Chem, 2017) come the findings set out here.

Assay [1] relates to Mycobacterium tuberculosis. As to the kind of experiment: Antimycobacterial activity against multidrug-resistant Mycobacterium tuberculosis CF81 clinical isolate incubated for 7 days measured 24 hrs post incubation by resazurin microtiter assay. It is filed as functional. On the technique in general: The colour change of resazurin is a common sign of viable cells or microbes.

The test system of assay [2] is Mycobacterium tuberculosis. Briefly: Antimycobacterial activity against multidrug-resistant Mycobacterium tuberculosis CF104 clinical isolate incubated for 7 days measured 24 hrs post incubation by resazurin microtiter assay. It is filed as functional.

What is called MIC90 is the lowest concentration that inhibits either 90% of growth or 90% of the strains tested, depending on the study. Low readings indicate higher susceptibility, high ones lower susceptibility. Take `CN1CCCCC1CCN1c2ccccc2Sc2ccc(Cl)cc21` (configuration not stated): the MIC90 was 12 µg/mL (≈ 33.4 µM) in assay [1] and 16 µg/mL (≈ 44.6 µM) in assay [2].

As to `CN1CCCCC1CCn1c2ccccc2c2ccccc21` (configuration not stated), the MIC90 in assay [1] was determined as 46 µg/mL (≈ 157 µM); in assay [2], 48 µg/mL (≈ 164 µM).

`c1ccc2c(c1)ccn2CCC1CCCCN1` (configuration not stated): the MIC90 was 4 µg/mL (≈ 17.5 µM) in assay [1] and 10 µg/mL (≈ 43.8 µM) in assay [2].

In the case of `CSc1ccc2c(c1)N(CCCN1CCN(C)CC1)c1ccccc1S2`, the MIC90 in assay [1] was determined as 33 µg/mL (≈ 85.6 µM); in assay [2], 23 µg/mL (≈ 59.6 µM).

As to `CN1CCCCC1CCN1c2ccccc2Sc2ccccc21` (configuration not stated), the values for the MIC90 in assay [1] and in assay [2] were 58 µg/mL (≈ 179 µM) and over 64 µg/mL, respectively.

Take `c1ccc2c(c1)Sc1ccccc1N2CCC1CCCCN1` (configuration not stated): the MIC90 is 58 µg/mL (≈ 187 µM) in assay [1] and over 64 µg/mL in assay [2].

With `c1ccc2c(c1)ncn2CCC1CCCCN1` (configuration not stated), the MIC90 in assay [1] and in assay [2] was over 100 µg/mL throughout.

Take `CSc1ccc2c(c1)N(CCC1CCCCN1)c1ccccc1S2` (configuration not stated): the MIC90 in assay [1] and in assay [2] was over 100 µg/mL each time.

`Clc1ccc2c(c1)N(CCC1CCCCN1)c1ccccc1S2` (configuration not stated): the values for the MIC90 in assay [1] and in assay [2] were 11 µg/mL (≈ 31.9 µM) and 19 µg/mL (≈ 55.1 µM), respectively.

As to `CSc1ccc2c(c1)N(CCCN1CCN(C3C4CC5CC(C4)CC3C5)CC1)c1ccccc1S2` (configuration not stated), the MIC90 in assay [1] turned out to be 48 µg/mL (≈ 94.9 µM); in assay [2], 20 µg/mL (≈ 39.5 µM).

In the case of `CSc1ccc2c(c1)N(C(=O)CN1CCCCC1)c1ccccc1S2`, the MIC90 in assay [1] is over 100 µg/mL; in assay [2] it was 72 µg/mL (≈ 194 µM).

In the case of `CSc1ccc2c(c1)N(CCC1CCCCN1Cc1ccccc1)c1ccccc1S2` (configuration not stated), the MIC90 is 44 µg/mL (≈ 98.5 µM) in assay [1] and 32 µg/mL (≈ 71.6 µM) in assay [2].

With `NNC(=O)c1ccncc1` [ISONIAZID], the MIC90 in assay [1] and in assay [2] was over 25 µg/mL each time.

Take `CN1CCN(CCCN2c3ccccc3Sc3ccccc32)CC1` [PERAZINE]: the MIC90 in assay [1] and in assay [2] was over 100 µg/mL throughout.

For the compound `CO[C@H]1/C=C/O[C@@]2(C)Oc3c(C)c(O)c4c(O)c(c(/C=N/N5CCN(C)CC5)c(O)c4c3C2=O)NC(=O)/C(C)=C\C=C\[C@H](C)[C@H](O)[C@@H](C)[C@@H](O)[C@@H](C)[C@H](OC(C)=O)[C@@H]1C` [RIFAMPIN], the MIC90 in assay [1] and in assay [2] was over 25 µg/mL in each case.

On to `CSc1ccc2c(c1)N(CCC1CCCCN1C)c1ccccc1S2` (configuration not stated) [THIORIDAZINE], for which the figures for the MIC90 in assay [1] and in assay [2] were 10 µg/mL (≈ 27 µM) and 11 µg/mL (≈ 29.7 µM), respectively.
